Measured values taken from publication PMC2876208 (Cancer, 2010).
Counter-ions that a name gives are not always drawn.

Key:
Lyn kinase = conditions: cited from earlier work
Bcr-Abl F317V = conditions: cited from earlier work
[1] = cited from earlier work
unmutated Bcr-Abl = conditions: cited from earlier work
[2] = Phase 1 study: pharmacokinetics in patients; assay type: in vivo, human; conditions: for half-life: Mean half-life
Ph-positive CML or ALL = assay: Phase 1 study: cytogenetic and hematologic response; assay type: in vivo, human
[3] = Phase 1 dose-escalation study: safety, adverse events; assay type: in vivo
[4] = target: other Src-family member kinases; conditions: cited from earlier work
Bcr-Abl F317L = conditions: cited from earlier work
[5] = 30 mg/kg dose level, 4-week; ref data on file, 24; cited from earlier work
CML = conditions: newly diagnosed patients with CML-CP; cited from earlier work

SMILES: Cc1ccc(NC(=O)c2ccc(CN3CC[C@H](N(C)C)C3)c(C(F)(F)F)c2)cc1Nc1nccc(-c2cncnc2)n1 [INNO-406]
- Kinase activity (Lyn kinase): specific Lyn kinase activity
- Sensitivity of mutation in vitro (Bcr-Abl F317V): sensitive
- In vivo potency relative to imatinib [1]: at least 10 times
- Inhibition of autophosphorylation relative to imatinib (unmutated Bcr-Abl): more potently inhibited
- Mean time to achieve peak concentration ([2]; 240 mg BID cohort, SD = 0.5): 1.3 h
- Mean (SD) accumulation factor ([2]; BID dosing): 2.73 (4.96)
- Accumulation ([2]; day 15, 360 and 480 mg BID cohorts): accumulation of INNO-406 was observed
- Dose proportionality of Cmax and AUC ([2]; entire study population, for AUC not demonstrable with BID dosing): dose proportional
- Cmax ([2]; human, in vivo, oral, 240 mg): 487 ng/mL
- half-life ([2]; human, in vivo, oral, BID dosing, day 1, SD 0.817): 1.99 h
- half-life ([2]; human, in vivo, oral, BID dosing, day 15, SD 0.751): 2.28 h
- Minimal-Minor Cytogenetic Response (Ph-positive CML or ALL; 60 mg QD, N = 3): 1 (33) n (%)
- Complete Cytogenetic Response (Ph-positive CML or ALL; 120 mg BID, N = 6): 1 (17) n (%)
- Complete Cytogenetic Response (Ph-positive CML or ALL; 120 mg QD, N = 6): 1 (17) n (%)
- Complete Cytogenetic Response (Ph-positive CML or ALL; 240 mg BID, N = 17): 1 (6) n (%)
- Partial Cytogenetic Response (Ph-positive CML or ALL; 240 mg BID, N = 17): 2 (12) n (%)
- Minimal-Minor Cytogenetic Response (Ph-positive CML or ALL; 360 mg BID, N = 7): 1 (14) n (%)
- Partial Cytogenetic Response (Ph-positive CML or ALL; 480 mg BID, N = 5): 1 (20) n (%)
- Response in patients with T315I mutations (Ph-positive CML or ALL; 4 patients with T315I mutations): None
- Complete Cytogenetic Response (Ph-positive CML or ALL; Total, all doses, N = 56): 3 (5) n (%)
- Minimal-Minor Cytogenetic Response (Ph-positive CML or ALL; Total, all doses, N = 56): 2 (4) n (%)
- Partial Cytogenetic Response (Ph-positive CML or ALL; Total, all doses, N = 56): 3 (5) n (%)
- Complete and partial hematologic responses (Ph-positive CML or ALL; all doses): 3 patients
- Major cytogenetic response rate (Ph-positive CML or ALL; all patients enrolled (6 of 56 patients)): 11%
- Major cytogenetic responses (Ph-positive CML or ALL; patients treated with doses of 240 mg BID or greater): 4
- Responses (Ph-positive CML or ALL; patients with CML-AP, CML-BP, or Ph-positive ALL): No responses
- Major cytogenetic response rate (Ph-positive CML or ALL; patients with CML-CP (6 of 31 patients)): 19%
- Major cytogenetic responses (Ph-positive CML or ALL; patients with CML-CP, all doses): 6 patients
- Adverse events, NCI category infection ([3]; % of patients, N = 56): 33.9%
- Deaths since beginning treatment ([3]; all related to leukemia progression): Five
- Adverse events, NCI category blood/bone marrow ([3]; human, in vivo): 25.0%
- Adverse events, NCI category cardiac general ([3]; human, in vivo): 12.5%
- Adverse events, NCI category constitutional symptoms ([3]; human, in vivo): 48.2%
- Adverse events, NCI category dermatology/skin ([3]; human, in vivo): 28.6%
- Adverse events, NCI category gastrointestinal ([3]; human, in vivo): 64.3%
- Adverse events, NCI category hemorrhage/bleeding ([3]; human, in vivo): 10.7%
- Adverse events, NCI category lymphatics ([3]; human, in vivo): 25.0%
- Adverse events, NCI category metabolic/laboratory ([3]; human, in vivo): 73.2%
- Adverse events, NCI category musculoskeletal/soft tissue ([3]; human, in vivo): 10.7%
- Adverse events, NCI category neurology ([3]; human, in vivo): 23.2%
- Adverse events, NCI category pain ([3]; human, in vivo): 58.9%
- Adverse events, NCI category pulmonary/upper respiratory ([3]; human, in vivo): 17.9%
- Drug-related acute renal failure ([3]; human, in vivo): 2 (4) No. (%)
- Drug-related elevated creatinine ([3]; human, in vivo): 1 (2) No. (%)
- Drug-related hypertension ([3]; human, in vivo): 1 (2) No. (%)
- Drug-related hyperuricemia ([3]; human, in vivo): 1 (2) No. (%)
- Drug-related increased ALT ([3]; human, in vivo): 9 (16) No. (%)
- Drug-related increased GGT ([3]; human, in vivo): 2 (4) No. (%)
- Drug-related increased bilirubin ([3]; human, in vivo): 2 (4) No. (%)
- Drug-related intrahepatic cholestasis ([3]; human, in vivo): 1 (2) No. (%)
- Drug-related prolonged QTc interval ([3]; human, in vivo): 1 (2) No. (%)
- Drug-related thrombocytopenia ([3]; human, in vivo): 1 (2) No. (%)
- Grade 3 thrombocytopenia, drug- and non-drug-related ([3]; human, in vivo): 2 patients
- Grade 4 thrombocytopenia, drug- and non-drug-related ([3]; human, in vivo): 3 patients
- QTc >500 msec ([3]; human, in vivo): 1 patient
- QTcB increased to grade 2 ([3]; human, in vivo): 4 patients
- QTcF increased to grade 2 ([3]; human, in vivo): 1 patient
- Pleural or pericardial effusions ([3]; in vivo): No cases
- Recommended phase 2 dose based on DLT and MTD ([3]; orally BID): 240 mg
- Kinase activity [4]: no or limited activity
- Sensitivity of mutation in vitro (Bcr-Abl F317L): sensitive
- Deaths [5]: no deaths occurred

SMILES: Cc1ccc(NC(=O)c2ccc(CN3CCN(C)CC3)cc2)cc1Nc1nccc(-c2cccnc2)n1 [imatinib, imatinib mesylate]
- Estimated 5 to 7-year survival rates (CML): over 90%
